Measured values: patent US10463670B2, “Use of non-peptide NK1 antagonists in a predetermined dose for the treatment of cancer” (SERVICIO ANDALUZ DE SALUD, priority 2013, dated 2019)

Legend:
[1] = system: human glioma; reference GAMG; experiment: Glioma GAMG tumours implanted s.c. in nude mice, Aprepitant alone; assay type: in vivo
Description: (§1) Immunocompromised female mice, 5-6 weeks of age were used, nu/nu Balb/c nude mice, provided by Harlan Iberica Barcelona (Spain). They were kept at 24° C. and in sterile conditions with food and water “ad libitum”. They were injected with 2×10^7 tumour cells, corresponding to cancer (human lung cancer, reference HCC-44 supplied by DSMZ) in 200 μl of PBS subcutaneous route. The tumour size was measured and the mice were evaluated for their state of health and weight daily. The mice were randomized in nine groups when the tumours reached a volume of 75 mm^3. One of the groups was treated with 200 μl of placebo (control group) and the eight remaining groups with doses of 10 (group 1), 20 (group 2), 30 (group 3), 40 (group 4), 50 (group 5), 60 (group 6), 70 (group 7) and 80 (group 8) mg per kilogram of weight and day of the NK1 receptor antagonist Aprepitant. 3 animals were treated per group, during 28 days. All the mice were sacrificed at the end of the experiment.
(§2) Immunocompromised female mice, 5-6 weeks of age were used, in the same conditions as explained in example 1. They were injected with 2×10^7 tumour cells, corresponding to a glial cell line tumour of the central nervous system human (human glioma; reference GAMG; supplied by DSMZ) in 200 μl of PBS by subcutaneous route. The tumour size was measured and the mice were evaluated for their state of health and weight daily. The mice were randomized in nine groups when the tumours reached a volume of 75 mm^3. One of the groups was treated with 200 μl of placebo (control group) and the eight remaining groups with doses of 10 (group 1), 20 (group 2), 30 (group 3), 40 (group 4), 50 (group 5), 60 (group 6), 70 (group 7) and 80 (group 8) mg per kilogram of weight and day of the NK1 receptor antagonist Aprepitant. 3 animals were treated per group, during 28 days. All the mice were sacrificed at the end of the experiment.

[2] = system: human lymphoma; reference BC-1; experiment: Lymphoma BC-1 tumours implanted s.c. in nude mice, Aprepitant alone; assay type: in vivo
Description: as §1
as §2, with “haematological” for “glial”, “tumour” for “tumour of the central nervous system human”, “lymphoma;” for “glioma;”, “BC-1;” for “GAMG;”

[3] = Aprepitant 10 mg/kg/day, 7 days
[4] = Aprepitant 10 mg/kg/day, 14 days
[5] = Aprepitant 10 mg/kg/day, 21 days
[6] = Aprepitant 10 mg/kg/day, 28 days
[7] = Aprepitant 20 mg/kg/day, 7 days
[8] = Aprepitant 20 mg/kg/day, 14 days
[9] = Aprepitant 20 mg/kg/day, 21 days
[10] = Aprepitant 20 mg/kg/day, 28 days
[11] = Aprepitant 30 mg/kg/day, 7 days
[12] = Aprepitant 30 mg/kg/day, 14 days
[13] = Aprepitant 30 mg/kg/day, 21 days
[14] = Aprepitant 30 mg/kg/day, 28 days
[15] = Aprepitant 40 mg/kg/day, 7 days
[16] = Aprepitant 40 mg/kg/day, 14 days
[17] = Aprepitant 40 mg/kg/day, 21 days
[18] = Aprepitant 40 mg/kg/day, 28 days
[19] = Aprepitant 50 mg/kg/day, 7 days
[20] = Aprepitant 50 mg/kg/day, 14 days
[21] = Aprepitant 50 mg/kg/day, 21 days
[22] = Aprepitant 50 mg/kg/day, 28 days
[23] = Aprepitant 60 mg/kg/day, 7 days
[24] = Aprepitant 60 mg/kg/day, 14 days
[25] = Aprepitant 60 mg/kg/day, 21 days
[26] = Aprepitant 60 mg/kg/day, 28 days
[27] = Aprepitant 70 mg/kg/day, 7 days
[28] = Aprepitant 70 mg/kg/day, 14 days
[29] = Aprepitant 70 mg/kg/day, 21 days
[30] = Aprepitant 70 mg/kg/day, 28 days
[31] = Aprepitant 80 mg/kg/day, 7 days
[32] = Aprepitant 80 mg/kg/day, 14 days
[33] = Aprepitant 80 mg/kg/day, 21 days
[34] = Aprepitant 80 mg/kg/day, 28 days

## C[C@@H](O[C@H]1OCCN(Cc2n[nH]c(=O)[nH]2)[C@H]1c1ccc(F)cc1)c1cc(C(F)(F)F)cc(C(F)(F)F)c1 [Aprepitant]
[1]; [3]
  Tumour size (mean volume of the tumour): 205 ± 3 cubic millimeters
[1]; [4]
  Tumour size (mean volume of the tumour): 185 ± 6 cubic millimeters
[1]; [5]
  Tumour size (mean volume of the tumour): 170 ± 7 cubic millimeters
[1]; [6]
  Tumour size (mean volume of the tumour): 155 ± 4 cubic millimeters
[1]; [7]
  Tumour size (mean volume of the tumour): 190 ± 4 cubic millimeters
[1]; [8]
  Tumour size (mean volume of the tumour): 160 ± 7 cubic millimeters
[1]; [9]
  Tumour size (mean volume of the tumour): 150 ± 6 cubic millimeters
[1]; [10]
  Tumour size (mean volume of the tumour): 125 ± 5 cubic millimeters
[1]; [11]
  Tumour size (mean volume of the tumour): 160 ± 4 cubic millimeters
[1]; [12]
  Tumour size (mean volume of the tumour): 145 ± 7 cubic millimeters
[1]; [13]
  Tumour size (mean volume of the tumour): 120 ± 6 cubic millimeters
[1]; [14]
  Tumour size (mean volume of the tumour): 105 ± 4 cubic millimeters
[1]; [15]
  Tumour size (mean volume of the tumour): 155 ± 6 cubic millimeters
[1]; [16]
  Tumour size (mean volume of the tumour): 125 ± 5 cubic millimeters
[1]; [17]
  Tumour size (mean volume of the tumour): 110 ± 5 cubic millimeters
[1]; [18]
  Tumour size (mean volume of the tumour): 90 ± 9 cubic millimeters
[1]; [19]
  Tumour size (mean volume of the tumour): 125 ± 5 cubic millimeters
[1]; [20]
  Tumour size (mean volume of the tumour): 110 ± 5 cubic millimeters
[1]; [21]
  Tumour size (mean volume of the tumour): 100 ± 5 cubic millimeters
[1]; [22]
  Tumour size (mean volume of the tumour): 80 ± 8 cubic millimeters
[1]; [23]
  Tumour size (mean volume of the tumour): 95 ± 5 cubic millimeters
[1]; [24]
  Tumour size (mean volume of the tumour): 85 ± 6 cubic millimeters
[1]; [25]
  Tumour size (mean volume of the tumour): 60 ± 6 cubic millimeters
[1]; [26]
  Tumour size (mean volume of the tumour): 50 ± 7 cubic millimeters
[1]; [27]
  Tumour size (mean volume of the tumour): 75 ± 6 cubic millimeters
[1]; [28]
  Tumour size (mean volume of the tumour): 60 ± 5 cubic millimeters
[1]; [29]
  Tumour size (mean volume of the tumour): 55 ± 5 cubic millimeters
[1]; [30]
  Tumour size (mean volume of the tumour): 35 ± 8 cubic millimeters
[1]; [31]
  Tumour size (mean volume of the tumour): 60 ± 3 cubic millimeters
[1]; [32]
  Tumour size (mean volume of the tumour): 45 ± 6 cubic millimeters
[1]; [33]
  Tumour size (mean volume of the tumour): 25 ± 7 cubic millimeters
[1]; [34]
  Tumour size (mean volume of the tumour): 15 ± 10 cubic millimeters
[2]; [3]
  Tumour size (mean volume of the tumour): 210 ± 3 cubic millimeters
[2]; [4]
  Tumour size (mean volume of the tumour): 195 ± 6 cubic millimeters
[2]; [5]
  Tumour size (mean volume of the tumour): 175 ± 7 cubic millimeters
[2]; [6]
  Tumour size (mean volume of the tumour): 170 ± 6 cubic millimeters
[2]; [7]
  Tumour size (mean volume of the tumour): 195 ± 6 cubic millimeters
[2]; [8]
  Tumour size (mean volume of the tumour): 175 ± 7 cubic millimeters
[2]; [9]
  Tumour size (mean volume of the tumour): 160 ± 6 cubic millimeters
[2]; [10]
  Tumour size (mean volume of the tumour): 150 ± 7 cubic millimeters
[2]; [11]
  Tumour size (mean volume of the tumour): 180 ± 7 cubic millimeters
[2]; [12]
  Tumour size (mean volume of the tumour): 155 ± 4 cubic millimeters
[2]; [13]
  Tumour size (mean volume of the tumour): 145 ± 8 cubic millimeters
[2]; [14]
  Tumour size (mean volume of the tumour): 140 ± 4 cubic millimeters
[2]; [15]
  Tumour size (mean volume of the tumour): 165 ± 8 cubic millimeters
[2]; [16]
  Tumour size (mean volume of the tumour): 165 ± 6 cubic millimeters
[2]; [17]
  Tumour size (mean volume of the tumour): 130 ± 5 cubic millimeters
[2]; [18]
  Tumour size (mean volume of the tumour): 110 ± 6 cubic millimeters
[2]; [19]
  Tumour size (mean volume of the tumour): 150 ± 5 cubic millimeters
[2]; [20]
  Tumour size (mean volume of the tumour): 145 ± 7 cubic millimeters
[2]; [21]
  Tumour size (mean volume of the tumour): 120 ± 6 cubic millimeters
[2]; [22]
  Tumour size (mean volume of the tumour): 100 ± 7 cubic millimeters
[2]; [23]
  Tumour size (mean volume of the tumour): 130 ± 6 cubic millimeters
[2]; [24]
  Tumour size (mean volume of the tumour): 130 ± 8 cubic millimeters
[2]; [25]
  Tumour size (mean volume of the tumour): 100 ± 7 cubic millimeters
[2]; [26]
  Tumour size (mean volume of the tumour): 85 ± 4 cubic millimeters
[2]; [27]
  Tumour size (mean volume of the tumour): 110 ± 4 cubic millimeters
[2]; [28]
  Tumour size (mean volume of the tumour): 105 ± 4 cubic millimeters
[2]; [29]
  Tumour size (mean volume of the tumour): 80 ± 5 cubic millimeters
[2]; [30]
  Tumour size (mean volume of the tumour): 80 ± 7 cubic millimeters
[2]; [31]
  Tumour size (mean volume of the tumour): 95 ± 6 cubic millimeters
[2]; [32]
  Tumour size (mean volume of the tumour): 85 ± 6 cubic millimeters
[2]; [33]
  Tumour size (mean volume of the tumour): 65 ± 3 cubic millimeters
[2]; [34]
  Tumour size (mean volume of the tumour): 65 ± 9 cubic millimeters
